Where two headings read alike, the source gives them in different places.
Legend:
G551D variant = G551D variant (Homo sapiens, UniProt P13569, G551D); assay: Potentiator EC50 for the G551D CFTR variant; format: cell-based
[1] = NOAEL exposure in dogs vs human dose
[2] = NOAEL exposure in rats vs human dose
F508del-CFTR = target: T1, F508del-CFTR (Homo sapiens, UniProt P13569, DEL508-508); assay: Ussing chamber electrophysiology, acute potentiation of F508del-CFTR current in corrected CF-hBE cells; format: cell-based; conditions: for Maximum efficacy (Emax), relative efficacy: normalized to response of 1 μM ivacaftor (=1.0), cells treated with the three correctors
T1 construct: endogenous in cells; host or cells: CF-hBE (primary human bronchial epithelial cells from CF donors)
T1 sequence (P13569 with tags, fused parts or gaps DEL508-508): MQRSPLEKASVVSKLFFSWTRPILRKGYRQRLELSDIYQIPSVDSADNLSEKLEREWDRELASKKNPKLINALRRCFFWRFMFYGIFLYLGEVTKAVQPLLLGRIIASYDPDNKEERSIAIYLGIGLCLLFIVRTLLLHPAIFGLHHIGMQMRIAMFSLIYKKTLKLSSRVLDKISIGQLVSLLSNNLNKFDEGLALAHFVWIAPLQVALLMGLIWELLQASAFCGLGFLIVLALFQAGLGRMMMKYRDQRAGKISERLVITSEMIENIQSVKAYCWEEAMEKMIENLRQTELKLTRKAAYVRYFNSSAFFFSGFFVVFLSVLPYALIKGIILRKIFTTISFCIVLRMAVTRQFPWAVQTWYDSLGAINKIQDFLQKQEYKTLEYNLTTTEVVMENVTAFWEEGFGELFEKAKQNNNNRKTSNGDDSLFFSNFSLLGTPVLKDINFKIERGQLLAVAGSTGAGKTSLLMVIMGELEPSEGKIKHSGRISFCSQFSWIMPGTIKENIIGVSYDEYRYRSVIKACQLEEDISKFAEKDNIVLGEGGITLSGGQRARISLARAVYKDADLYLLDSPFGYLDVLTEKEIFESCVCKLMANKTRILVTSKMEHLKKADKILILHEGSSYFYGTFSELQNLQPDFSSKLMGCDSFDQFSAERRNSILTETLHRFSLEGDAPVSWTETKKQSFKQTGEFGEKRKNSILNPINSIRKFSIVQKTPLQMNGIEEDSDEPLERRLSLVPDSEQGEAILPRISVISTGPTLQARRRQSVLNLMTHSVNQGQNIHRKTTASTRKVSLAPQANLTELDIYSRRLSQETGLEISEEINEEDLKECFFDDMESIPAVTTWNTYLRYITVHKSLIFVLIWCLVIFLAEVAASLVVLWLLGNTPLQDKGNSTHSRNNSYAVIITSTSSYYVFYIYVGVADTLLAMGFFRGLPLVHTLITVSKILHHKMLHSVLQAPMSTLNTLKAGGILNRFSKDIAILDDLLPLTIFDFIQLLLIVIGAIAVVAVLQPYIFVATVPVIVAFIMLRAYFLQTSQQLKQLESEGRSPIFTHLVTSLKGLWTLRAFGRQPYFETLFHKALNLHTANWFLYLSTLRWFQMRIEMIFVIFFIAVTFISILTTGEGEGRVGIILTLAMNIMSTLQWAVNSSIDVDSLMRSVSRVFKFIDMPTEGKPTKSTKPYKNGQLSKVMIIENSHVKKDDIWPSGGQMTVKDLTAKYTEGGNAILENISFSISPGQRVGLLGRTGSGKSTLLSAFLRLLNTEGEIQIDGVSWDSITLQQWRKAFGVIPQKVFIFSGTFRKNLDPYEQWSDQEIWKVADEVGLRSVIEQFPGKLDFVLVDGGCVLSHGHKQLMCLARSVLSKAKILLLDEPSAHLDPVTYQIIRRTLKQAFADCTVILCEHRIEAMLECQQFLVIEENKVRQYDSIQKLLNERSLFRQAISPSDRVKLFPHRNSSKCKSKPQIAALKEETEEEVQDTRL
Experimental: Methods: […] Electrophysiology assays were conducted in an Ussing chamber in which corrected cells were treated with ascending concentrations of […] (0.001-10 μM) or ivacaftor (0.0003-1.0 μM). […] FIG. 1 legend: Ussing assay dose-response curves for potentiation of F508del-CFTR current following acute addition of ivacaftor (0.0003-1.0 μM, black circles) and […] (0.001-10 μM, blue squares labeled FDL176). Cells were corrected with lumacaftor (left), tezacaftor (middle), or FDL169 (right), each at 3 μM. For each corrector treatment group, dose response data for ivacaftor and […] were normalized to the response following activation with 1 μM ivacaftor (with matched corrector). Error bars represent SEM. CF-hBE=cystic fibrosis primary human bronchial epithelial cells; CFTR=cystic fibrosis transmembrane conductance regulator; SEM=standard error of the mean.

[3] = Total plasma Cmin at steady state, human dose; format: in vivo
[4] = cystic fibrosis patients with comorbid pancreatic diseases (Carrion et al. 2018); cited from earlier work

G551D variant, sequence (P13569 whole entry G551D): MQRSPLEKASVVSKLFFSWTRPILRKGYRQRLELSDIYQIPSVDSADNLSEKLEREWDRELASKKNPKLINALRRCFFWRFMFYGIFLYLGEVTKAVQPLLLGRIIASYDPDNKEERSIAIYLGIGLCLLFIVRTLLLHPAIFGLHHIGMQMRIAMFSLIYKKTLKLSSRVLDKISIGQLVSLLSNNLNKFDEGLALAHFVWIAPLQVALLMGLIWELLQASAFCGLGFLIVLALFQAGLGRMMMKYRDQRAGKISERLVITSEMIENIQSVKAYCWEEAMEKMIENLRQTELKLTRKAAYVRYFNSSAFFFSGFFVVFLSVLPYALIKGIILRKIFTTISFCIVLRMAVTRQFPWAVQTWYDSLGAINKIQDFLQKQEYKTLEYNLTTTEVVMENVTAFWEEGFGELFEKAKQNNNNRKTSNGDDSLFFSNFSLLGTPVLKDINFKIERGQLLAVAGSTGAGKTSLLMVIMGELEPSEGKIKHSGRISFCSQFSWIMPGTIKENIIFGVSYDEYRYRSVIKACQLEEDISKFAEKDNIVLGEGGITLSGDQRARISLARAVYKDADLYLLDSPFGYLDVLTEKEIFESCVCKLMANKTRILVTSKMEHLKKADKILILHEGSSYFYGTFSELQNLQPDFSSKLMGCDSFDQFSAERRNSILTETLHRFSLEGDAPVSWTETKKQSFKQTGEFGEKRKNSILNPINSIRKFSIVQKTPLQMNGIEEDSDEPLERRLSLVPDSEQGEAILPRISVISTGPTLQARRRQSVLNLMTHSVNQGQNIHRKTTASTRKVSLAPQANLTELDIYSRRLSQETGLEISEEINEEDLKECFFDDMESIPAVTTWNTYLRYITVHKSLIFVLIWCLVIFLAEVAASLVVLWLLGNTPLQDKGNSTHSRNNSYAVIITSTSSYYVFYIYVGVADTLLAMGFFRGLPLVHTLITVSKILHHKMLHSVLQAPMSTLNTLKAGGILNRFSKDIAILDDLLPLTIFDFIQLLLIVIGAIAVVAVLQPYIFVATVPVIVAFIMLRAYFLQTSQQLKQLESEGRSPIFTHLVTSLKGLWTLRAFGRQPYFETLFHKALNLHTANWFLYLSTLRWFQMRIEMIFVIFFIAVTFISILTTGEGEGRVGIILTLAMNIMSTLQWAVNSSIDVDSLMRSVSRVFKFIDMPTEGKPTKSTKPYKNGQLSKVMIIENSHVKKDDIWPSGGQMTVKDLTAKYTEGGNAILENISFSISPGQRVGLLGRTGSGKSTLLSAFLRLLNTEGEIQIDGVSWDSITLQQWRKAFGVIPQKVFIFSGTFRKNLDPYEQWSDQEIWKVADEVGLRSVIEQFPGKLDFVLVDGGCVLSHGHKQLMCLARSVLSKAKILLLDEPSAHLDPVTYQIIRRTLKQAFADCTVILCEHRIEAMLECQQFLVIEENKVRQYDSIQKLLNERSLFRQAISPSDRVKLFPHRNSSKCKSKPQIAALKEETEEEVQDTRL

| EC50 (F508del-CFTR; corrector treated CF-hBE cells (lumacaftor, tezacaftor, FDL169), acute addition, read-out: EC50 range, potentiation of F508del-CFTR current) | SMILES | EC50 (G551D variant) | Safety margin of NOAEL exposure over a 50 mg human dose [1] | Safety margin of NOAEL exposure over a 50 mg human dose [2] | EC50 (F508del-CFTR; CF-hBE cells corrected with FDL169 3 μM, acute addition (<1 hour), read-out: EC50, potentiation of F508del-CFTR current) | EC50 (F508del-CFTR; CF-hBE cells corrected with lumacaftor 3 μM, acute addition (<1 hour), read-out: EC50, potentiation of F508del-CFTR current) | EC50 (F508del-CFTR; CF-hBE cells corrected with tezacaftor 3 μM, acute addition (<1 hour), read-out: EC50, potentiation of F508del-CFTR current) | Maximum efficacy (Emax), relative efficacy (F508del-CFTR) | Total plasma Cmin at steady state ([3]; 30 mg dose) | Total plasma Cmin at steady state ([3]; 50 mg dose) | Recurrence rate of pancreatitis [4] |
| --- | --- | --- | --- | --- | --- | --- | --- | --- | --- | --- | --- |
| – | Cl.O=S(=O)(c1ccccc1)c1ccc2nc(NCc3ccc(-c4ccccn4)cc3)nn2c1 [X0176, 6-(phenylsulfonyl)-N-(4-(pyridin-2-yl)benzyl)-[1,2,4]triazolo[1,5-a]pyridin-2-amine hydrochloride] | 2600 nM | 1.1 fold | 3.4 fold | 204 ± 24.4 nM | 133 ± 18.1 nM | 202 ± 44.6 nM | 1.0 | 2180 nM | 3170 nM | – |
| 3.6 to 9.1 nM | CC(C)(C)c1cc(C(C)(C)C)c(NC(=O)c2c[nH]c3ccccc3c2=O)cc1O [ivacaftor, reference compound] | – | – | – | – | – | – | 1.0 | – | – | decreased recurrence rate of pancreatitis |
